Entries after “also recorded” stand apart in the source; their conditions may differ.
What was measured:
refractory myeloma = conditions: cited from earlier work
MM1.S-luc = assay: Three organ system sandwich assay, MM luciferase activity; assay type: cell-based
Source text: (§1) FIG. 1A, FIG. 1B, and FIG. 1C provide a scheme showing a sandwich three organ system assay, structures of lead compounds, and a graph of cell viability. Development of the three organ system sandwich assay yields structurally distinct promising anti-myeloma compounds. (a) To address the objective of identifying new clinically translatable treatments for the incurable cancer multiple myeloma (MM) that disrupt critical programs for this malignancy while sparing normal bone marrow, the inventors submitted hits from a mechanistically unbiased primary anti-MM screen to tests that modeled key components of the in vivo situation, initially separately, then in one multi-layered sandwich assay, followed by assessment of anti-MM activity in a panel of genetically heterogeneous MM cell lines.
(§2) Sandwich assay: HS-5 bone marrow stromal cells which secrete hematopoietic growth factors including multiple myeloma (MM) supporting IL-6 are grown to confluence on Transwell™ inserts before firefly luciferase expressing MM1.S cells are added and incubated overnight. […] Three to four days later MM luciferase activity is measured and viability of NL BM, constantly drug exposed for maximal stringency, is assessed by trypan blue exclusion using Vicell™ flow.

5TGM1-luc cells = assay: Immunocompetent systemic mouse myeloma model (5TGM1-luc); assay type: in vivo; conditions: for anti-MM activity in vivo (imaging, time to death or euthanasia): albumin-based solutions, CCF642 IV then IP 1-12 mg/kg, CCF1172 IP three times a week 22 then 44 mg/kg; for adverse events by clinical observations and weekly weight measurements: three times a week clinical observations, increasing doses
Experimental: C57BL/KaLwRij mice were injected with 4×10^6 5 TGM1-luc cells per mouse via the tail vein. The next day, treatments were started. Compounds were diluted from DMSO stock into aqueous bovine serum albumin (Sigma, cat. # A7030) solution, supplemented, after compound addition, with NaCl to a final NaCl concentration of 150 mM. In this pilot experiment we aimed to evaluate general tolerance and activity using increasing doses. CCF642 was given in 10% BSA IV twice a week for the first three weeks followed by IP three times a week. IV doses started with 1 mg/kg (3% DMSO) and increased by 1 mg/kg per week (6% DMSO in the second and 10% DMSO in the third week). IP doses started with 6 mg/kg in week 4 and from week 5 onwards used 12 mg/kg (10% DMSO in both). CCF1172 (obtained from SPECS) was given IP three times a week, 22 mg/kg in the first two weeks, then 44 mg/kg (10% BSA, 10% DMSO).

[1] = Three organ system sandwich assay, normal bone marrow viability by trypan blue exclusion; assay type: cell-based; conditions: human, read-out: reduction of viable NLBM cells
Source text: as §1, §2

MM cell lines = assay: Anti-MM activity in a panel of genetically heterogeneous MM cell lines; assay type: cell-based
Source text: (§3) Cell lines: Multiple myeloma cell lines MM1.S, MM1.R, NCI-H929 were obtained from ATCC. MM cell lines KMS-12-PE and KMS-12-BM were from the JCRB, JJN-3 from DSMZ, and 5TGM1-luc cells were from Dr. Yoneda at the University of Texas Health Science at San Antonio. HRMM.09 cells were generated in the inventor's lab from a patient who developed refractory myeloma after treatment with steroids, IMiD, proteasome inhibitors, DNA alkylators, and anthracyclines. MM1.S-luc and HRMM.09-luc were generated in the inventor's laboratory by transduction with Cignal™ firefly luciferase control lentivirus obtained from Qiagen™ Lymphoma cells were generated by Mitchell Smith. All MM and lymphoma cells were grown in RPMI 1640 (NaCl 103.45 mM, NaCO3 23.81 mM, Na2HPO4 5.63 mM, KCl 5.33 mM, Ca(NO3)2 4H2O 0.424 mM, MgSO4 0.407 mM, pH around 7.2), supplemented with 10% fetal bovine serum, penicillin G (50 units ml^−1), and streptomycin (50 μM ml^−1). HS-5 cells were grown in appropriate cell culture media. Normal bone marrow cells were obtained from discarded bags of bone marrow grafts from healthy donors and either kept in RPMI with 25% (v/v) HS-5 supernatant for up to 14 days for isolated cytotoxicity assays or frozen and thawed for the sandwich assay. All cells were cultured at 37° C., 5% CO2 in humidified air.
Taking a mechanistically unbiased approach to drug discovery the inventors developed a sandwich assay that selected anti-MM compounds from a primary ATP-based 30,000 small molecule screen for lack of toxicity on normal bone marrow, stability towards liver enzymes, and activity in the context of cell barriers, bone marrow stromal support, and short, kidney-clearance-like exposure. CCF1172 emerged as one of three promising compounds and had sub-μM IC50 potency in all 8 MM cells tested and 6 of 7 lymphoma cell lines.

lymphoma cell lines = assay: Activity in lymphoma cell lines; assay type: cell-based; conditions: 6 of 7 lymphoma cell lines
Source text: as §3, with “air. […]” for “air.”

| Compound | overall response rate (refractory myeloma; single agent, refractory myeloma patients) | survival relative to expected survival (refractory myeloma; two phase studies, patients with refractory myeloma) | effectiveness in the sandwich assay compared with CCF642 and CCF1118 (MM1.S-luc) | reduction of MM1.S-luc luminescence (MM1.S-luc; 15 μM) | anti-MM activity in vivo (imaging, time to death or euthanasia) (5TGM1-luc cells) | adverse events by clinical observations and weekly weight measurements (5TGM1-luc cells) | cytotoxicity at 15 μM [1] | potency in the MM cell line panel compared with CCF642 and CCF1118 (MM cell lines; MM cell line panel) | IC50 potency in MM cells (MM cell lines; all 8 MM cells tested) | activity against genetically heterogenous MM cell lines (MM cell lines; seven MM cell lines) | IC50 potency in lymphoma cell lines (lymphoma cell lines) |
| --- | --- | --- | --- | --- | --- | --- | --- | --- | --- | --- | --- |
| Daratumumab: the first anti-CD38 antibody for use in myeloma | about 30% | over twice of expected survival |  |  |  |  |  |  |  |  |  |
| O=C(Nc1cccc2ccccc12)c1cc(Cl)ccc1O [CCF1172] |  |  | equally effective | 70-80% | demonstrated in vivo activity; also recorded: had anti-MM activity | No obvious adverse events | < 30% | less potent | sub-μM | uniform activity | sub-μM |
| COc1ccc(N2C(=O)/C(=C\c3ccc([N+](=O)[O-])s3)SC2=S)cc1 [CCF642, reference compound] |  |  |  |  | had anti-MM activity | No obvious adverse events |  |  |  |  |  |

From patent US20170057910A1, “ANTITUMOR NAPHTHALENYL BENZAMIDE DERIVATIVES” (THE CLEVELAND CLINIC FOUNDATION, priority 2015, published 2017)
